Laboratory results: PMC8822458, “Synthesis and bioactivity of pyrrole-conjugated phosphopeptides” (Beilstein Journal of Organic Chemistry, 2022)
Like-named read-outs stand apart in the source and are kept apart here. *1 amine or outer side, *2 acyl side, *3 side chain or, on linkers, in order; H or OH if unused. Where a SMILES comes first, the peptide text is derived from it. [ ]: non-standard residue; d: D form. The star is where a group is joined. d(pY) = N[C@H](Cc1ccc(OP(=O)(O)O)cc1)C(=O)O; pY = N[C@@H](Cc1ccc(OP(=O)(O)O)cc1)C(=O)O; d(pS) = N[C@H](COP(=O)(O)O)C(=O)O; Guanidinoacetyl = N=C(N)NCC(=O)*; X2 = Cn1cc(N[*:1])cc1C(=O)[*:2]; X1 = Cn1cc(N)cc1C(=O)*

What was measured:
HeLa cells = test: MTT cell viability of HeLa cells
Description: We examined the cytotoxicity of the synthesized compounds by incubating them with HeLa cells because HeLa cells overexpress ALP and are widely available. By incubating 200 μM of each compound with HeLa cells for 24 hours, we employed MTT assay to determine the cell viability of the HeLa cells. […]
S3. Cel l culture and cell viability
HeLa cell line was purchased from American Type Culture Collection (ATCC, Manassas, VA, USA). HeLa cells were cultured in MEM medium with 100 U mL-1 penicillin and 100 μg mL-1 streptomycin. Cells were cultured at 37 °C in a humidified atmosphere of 5% CO 2.
MTT assay was used to determine the cytotoxicity of the compounds against HeLa cells.
Cells were seeded in 96-well plate at 1.0 × 10^5 cells/well for 24 hours followed by culture medium removal. Fresh culture medium containing different concentrations of compounds were then added. After incubated at 37 °C for 24/48/72 hours, the culture medium with compounds were replaced by fresh culture m edium plus 10 μL of MTT solution (5 mg/mL). After incubated at 37 °C for another 4 hours, 100 μL of SDS-HCl solution was added to stop the reduction and dissolve formazan formed. A DTX880 […]
Multimode Detector was used to measure the absorbance of each well at 595 nm, and cell viability was calculated as percentage relative to untreated cells. Data were […]

[1] = Circular dichroism of assemblies before and after ALP; type: physicochemical; conditions: circular dichroism before and after ALP (Figure S34)
Source text: In addition to the TEM images, we used circular dichroism (CD) to reveal the secondary structures of the assemblies before and after enzymatic action.

[2] = TEM morphology of peptide assemblies before and after ALP; type: physicochemical; conditions: 400 μM and 200 μM, PBS buffer pH 7.4
Source text: Figure 3 A) TEM images of 1 before and after addition of ALP (0.5 U/mL) in PBS buffer (pH 7.4). Scale bar is 100 nm. Figure 3A was reprinted with permission from https://pubs.acs.org/doi/10.1021/bm5010355, Copyright 2014 American Chemical Society. This content is not subjected to CC-BY 4.0. Permission requests related to the material excerpted should be directed to the ACS. […] Scale bar is 200 nm.
Figure S1. Cell viability of HeLa cells treated with different compounds.
S4. TEM sample preparation
400-mesh copper grids coated with continuous thick carbon film (~35 nm) were glow discharged, on which 3 μL of samples were placed. After washed with ddH2O and uranyl acetate (UA), the sample-loaded grids were stained with UA. The residual UA was removed by filter paper and then air-dried.

[3] = set-up: method as in PMID 25230147; conditions: TEM, ALP 0.5 U/mL, PBS buffer pH 7.4; cited from earlier work

Cn1cc(NC(=O)c2cc(N)cn2C)cc1C(=O)NCC(=O)NCC(=O)NCC(=O)N[C@@H](Cc1ccccc1)C(=O)N[C@@H](Cc1ccccc1)C(=O)N[C@@H](Cc1ccc(OP(=O)(O)O)cc1)C(=O)O [3a] (X1-[X2]GGGFF[pY]-OH)
Cell viability of HeLa cells (HeLa cells; 24 h, 200 μM): 86.0%

Cn1cc(NC(=O)c2cc(N)cn2C)cc1C(=O)NCC(=O)NCC(=O)NCC(=O)N[C@H](Cc1ccccc1)C(=O)N[C@H](Cc1ccccc1)C(=O)N[C@H](COP(=O)(O)O)C(=O)O [4a] (X1-[X2]GGG[dF][dF][d(pS)]-OH)
Change of CD signal upon ALP treatment [1]: merely slight changes
Cell viability of HeLa cells (HeLa cells; MTT, 200 μM, 24 h, 37 °C, absorbance 595 nm, relative to untreated cells, n = 3 wells): 69.2%
Cell viability of HeLa cells (HeLa cells; MTT, 400 μM, day 1, n = 3 wells): 72.3%
Inhibition of HeLa cell proliferation (in words) (HeLa cells; MTT, 20 to 400 μM, day 2 and 3): largely vanishes
Change of morphology of the assemblies after ALP ([2]; 1 U/mL ALP, 24 h): little change in the morphology
Morphology of the assemblies before ALP [2]: networks of nanoparticles

O=C(Cc1ccc2ccccc2c1)N[C@H](Cc1ccccc1)C(=O)N[C@H](Cc1ccccc1)C(=O)N[C@H](Cc1ccc(OP(=O)(O)O)cc1)C(=O)O [compound 1, Nap-ffpy, reference compound]
Change of CD signal upon ALP treatment [1]: significant change
Change of morphology of the assemblies after ALP [3]: morphological transition from nanoparticles of 1 to networks of nanofibers
Inhibition / compatibility with HeLa cells (in words) (HeLa cells; 400 μM): significantly inhibits
Inhibition of HeLa cell proliferation (in words) (HeLa cells; MTT, 200 μM, day 3): begins to reduce cell viability
Inhibition of HeLa cell proliferation (in words) (HeLa cells; MTT, concentrations lower than 100 μM, over 3 days): hardly inhibits

Cn1cc(NC(=O)c2cc(NC(=O)c3cc(N)cn3C)cn2C)cc1C(=O)NCC(=O)NCC(=O)NCC(=O)N[C@@H](Cc1ccccc1)C(=O)N[C@@H](Cc1ccccc1)C(=O)N[C@@H](Cc1ccc(OP(=O)(O)O)cc1)C(=O)O [3b] (X1-[X2][X2]GGGFF[pY]-OH)
Cell viability of HeLa cells (HeLa cells; 24 h, 200 μM): 97.2%

Cn1cc(N)cc1C(=O)NCC(=O)NCC(=O)NCC(=O)N[C@H](Cc1ccccc1)C(=O)N[C@H](Cc1ccccc1)C(=O)N[C@H](Cc1ccc(OP(=O)(O)O)cc1)C(=O)O [2f, Py-GGGffpy] (X1-GGG[dF][dF][d(pY)]-OH)
Cell viability of HeLa cells (HeLa cells; 24 h, 200 μM): 92.8%

Cn1cc(NC(=O)OC(C)(C)C)cc1C(=O)Nc1cc(C(=O)N[C@H](Cc2ccccc2)C(=O)N[C@H](Cc2ccccc2)C(=O)N[C@H](Cc2ccc(OP(=O)(O)O)cc2)C(=O)O)n(C)c1 [compound 9]
Cell viability of HeLa cells (HeLa cells; 24 h, 200 μM): about 70%

Cn1cc(NC(=O)CNC(=N)N)cc1C(=O)NCC(=O)NCC(=O)NCC(=O)N[C@H](Cc1ccccc1)C(=O)N[C@H](Cc1ccccc1)C(=O)N[C@H](Cc1ccc(OP(=O)(O)O)cc1)C(=O)O [10a] (Guanidinoacetyl-[X2]GGG[dF][dF][d(pY)]-OH)
Cell viability of HeLa cells (HeLa cells; 24 h, 200 μM): about 70%

Cn1cc(NC(=O)c2cc(NC(=O)CNC(=N)N)cn2C)cc1C(=O)NCC(=O)NCC(=O)NCC(=O)N[C@H](Cc1ccccc1)C(=O)N[C@H](Cc1ccccc1)C(=O)N[C@H](Cc1ccc(OP(=O)(O)O)cc1)C(=O)O [10b] (Guanidinoacetyl-[X2][X2]GGG[dF][dF][d(pY)]-OH)
Cell viability of HeLa cells (HeLa cells; 24 h, 200 μM): about 70%

Cn1cc(N)cc1C(=O)Nc1cc(C(=O)Nc2cc(C(=O)N[C@H](Cc3ccccc3)C(=O)N[C@H](Cc3ccccc3)C(=O)N[C@H](Cc3ccc(OP(=O)(O)O)cc3)C(=O)O)n(C)c2)n(C)c1 [2b]
Cell viability of HeLa cells (HeLa cells; 24 h, 200 μM): 142.6%
